These results are taken from PMC5500234 (Chemistry (Weinheim an der Bergstrasse, Germany), 2016).

In the experiment the target is LeuT (bacterial leucine transporter) (Aquifex aeolicus, UniProt O67854). The experiment is described as follows: scintillation proximity assay. Format: binding. The following applies: labelled compound; room temperature, […] days; DDM or MNA-C12/C13/C14. A general note: Scintillation proximity formats need no separation of bound from free tracer.

Turning to `CC(C)C[C@H](N)C(=O)O` [[3H]-leucine], the “scintillation proximity assay (SPA), radioligand binding” value was “measuring the ability to bind [^3H]-leucine via scintillation proximity assay (SPA)”.
